Measurements taken from patent publication US20220023289A1, “Application Of Pyrroloquinoline Quinone In Preparation Of Medicament Used For Preventing And Treating Acute Altitude Sickness And Acute Altitude Hypoxia Injury” (priority 2018, published 2022).

Assay: Mice weight before hypoxia tolerance test of simulated 10000 m altitude acute decompression
Settings: for Mice weight Female / Mice weight Male: administration for three days
[1] = administration for 14 days, 2.64 mg/kg
[2] = administration for 14 days, 5.28 mg/kg
[3] = administration for 14 days, 10.56 mg/kg
[4] = administration for 14 days, 21.12 mg/kg
[5] = administration for seven days, 1.32 mg/kg
[6] = administration for seven days, 2.64 mg/kg
[7] = administration for seven days, 5.28 mg/kg
[8] = administration for seven days, 10.56 mg/kg
[9] = administration for seven days, 21.12 mg/kg
[10] = seven days, repeat experiment in male mice, 1.32 mg/kg
[11] = seven days, repeat experiment in male mice, 2.64 mg/kg
[12] = seven days, repeat experiment in male mice, 5.28 mg/kg
[13] = seven days, repeat experiment in male mice, 10.56 mg/kg
[14] = seven days, repeat experiment in male mice, 21.12 mg/kg

O=C(O)c1cc(C(=O)O)c2c(n1)C(=O)C(=O)c1cc(C(=O)O)[nH]c1-2 [PQQ, pyrroloquinoline quinone]
Mice weight Female 7 days [1]: 21.41 ± 1.62 g
Mice weight Male 1 day [1]: 16.63 ± 1.87 g
Mice weight Male 7 days [1]: 22.58 ± 1.41 g
Mice weight Male 14 days [1]: 28.13 ± 2.70 g
Mice weight Female 1 day [2]: 15.63 ± 1.12 g
Mice weight Female 7 days [2]: 20.47 ± 2.11 g
Mice weight Male 1 day [2]: 17.01 ± 1.91 g
Mice weight Male 7 days [2]: 23.68 ± 2.02 g
Mice weight Male 14 days [2]: 29.44 ± 2.15 g
Mice weight Female 1 day [3]: 15.84 ± 1.33 g
Mice weight Female 7 days [3]: 21.68 ± 1.66 g
Mice weight Male 1 day [3]: 16.58 ± 1.68 g
Mice weight Male 7 days [3]: 23.13 ± 1.73 g
Mice weight Male 14 days [3]: 19.58 ± 2.11 g
Mice weight Female 1 day [4]: 15.68 ± 0.91 g
Mice weight Female 7 days [4]: 20.10 ± 2.07 g
Mice weight Male 1 day [4]: 16.86 ± 1.71 g
Mice weight Male 7 days [4]: 23.67 ± 1.77 g
Mice weight Male 14 days [4]: 30.81 ± 2.76 g
Mice weight Female 1 day [5]: 18.10 ± 1.19 g
Mice weight Female 7 days [5]: 21.36 ± 1.98 g
Mice weight Male 1 day [5]: 18.46 ± 1.36 g
Mice weight Male 7 days [5]: 22.19 ± 2.69 g
Mice weight Female 1 day [6]: 18.19 ± 1.24 g
Mice weight Female 7 days [6]: 21.40 ± 1.92 g
Mice weight Male 1 day [6]: 18.31 ± 1.01 g
Mice weight Male 7 days [6]: 23.51 ± 3.09 g
Mice weight Female 1 day [7]: 17.95 ± 1.28 g
Mice weight Female 7 days [7]: 22.71 ± 1.38 g
Mice weight Male 1 day [7]: 18.38 ± 1.85 g
Mice weight Male 7 days [7]: 22.04 ± 3.25 g
Mice weight Female 1 day [8]: 17.99 ± 1.41 g
Mice weight Female 7 days [8]: 22.66 ± 1.68 g
Mice weight Male 1 day [8]: 18.26 ± 1.15 g
Mice weight Male 7 days [8]: 22.41 ± 1.79 g
Mice weight Female 1 day [9]: 18.35 ± 1.62 g
Mice weight Female 7 days [9]: 23.94 ± 2.10 g
Mice weight Male 1 day [9]: 18.00 ± 1.78 g
Mice weight Male 7 days [9]: 23.54 ± 3.92 g
Mice weight Female (1.32 mg/kg): 18.22 ± 1.16 g
Mice weight Male (1.32 mg/kg): 19.97 ± 0.84 g
Mice weight Female (2.64 mg/kg): 18.79 ± 1.14 g
Mice weight Male (2.64 mg/kg): 19.65 ± 0.83 g
Mice weight Female (5.28 mg/kg): 18.10 ± 0.76 g
Mice weight Male (5.28 mg/kg): 20.16 ± 1.18 g
Mice weight Female (10.56 mg/kg): 17.95 ± 1.14 g
Mice weight Male (10.56 mg/kg): 19.73 ± 0.85 g
Mice weight Female (21.12 mg/kg): 18.48 ± 1.01 g
Mice weight Male (21.12 mg/kg): 19.28 ± 0.95 g
Mice weight Male 1 day [10]: 19.84 ± 1.84 g
Mice weight Male 7 days [10]: 27.14 ± 2.66 g
Mice weight Male 1 day [11]: 19.66 ± 1.08 g
Mice weight Male 7 days [11]: 26.78 ± 3.14 g
Mice weight Male 1 day [12]: 19.75 ± 1.27 g
Mice weight Male 7 days [12]: 26.47 ± 2.88 g
Mice weight Male 1 day [13]: 19.90 ± 1.06 g
Mice weight Male 7 days [13]: 27.33 ± 2.27 g
Mice weight Male 1 day [14]: 19.85 ± 1.00 g
Mice weight Male 7 days [14]: 26.73 ± 2.37 g
